For experiment [1], the target named is Fibroblast growth factor receptor 1 (Homo sapiens, UniProt P11362). The experiment is described as follows: Inhibition of N-terminal GST-tagged human FGFR1 cytoplasmic domain (398-822 AA) expressed in baculovirus at 10 uM using FAM-labelled peptide as substrate pre-incubated for 10 mins followed by substrate addition by mobility shift assay relative to control.

Experiment [2] deals with Epidermal growth factor receptor (Homo sapiens), P00533 [L858R]. Put plainly: Inhibition of recombinant human EGFR L858R mutant expressed in baculovirus at 10 uM using FAM-labelled peptide as substrate pre-incubated for 10 mins followed by substrate addition by mobility shift assay relative to control.
Sequence of Epidermal growth factor receptor (Homo sapiens), P00533 [L858R] (P00533 whole entry L858R): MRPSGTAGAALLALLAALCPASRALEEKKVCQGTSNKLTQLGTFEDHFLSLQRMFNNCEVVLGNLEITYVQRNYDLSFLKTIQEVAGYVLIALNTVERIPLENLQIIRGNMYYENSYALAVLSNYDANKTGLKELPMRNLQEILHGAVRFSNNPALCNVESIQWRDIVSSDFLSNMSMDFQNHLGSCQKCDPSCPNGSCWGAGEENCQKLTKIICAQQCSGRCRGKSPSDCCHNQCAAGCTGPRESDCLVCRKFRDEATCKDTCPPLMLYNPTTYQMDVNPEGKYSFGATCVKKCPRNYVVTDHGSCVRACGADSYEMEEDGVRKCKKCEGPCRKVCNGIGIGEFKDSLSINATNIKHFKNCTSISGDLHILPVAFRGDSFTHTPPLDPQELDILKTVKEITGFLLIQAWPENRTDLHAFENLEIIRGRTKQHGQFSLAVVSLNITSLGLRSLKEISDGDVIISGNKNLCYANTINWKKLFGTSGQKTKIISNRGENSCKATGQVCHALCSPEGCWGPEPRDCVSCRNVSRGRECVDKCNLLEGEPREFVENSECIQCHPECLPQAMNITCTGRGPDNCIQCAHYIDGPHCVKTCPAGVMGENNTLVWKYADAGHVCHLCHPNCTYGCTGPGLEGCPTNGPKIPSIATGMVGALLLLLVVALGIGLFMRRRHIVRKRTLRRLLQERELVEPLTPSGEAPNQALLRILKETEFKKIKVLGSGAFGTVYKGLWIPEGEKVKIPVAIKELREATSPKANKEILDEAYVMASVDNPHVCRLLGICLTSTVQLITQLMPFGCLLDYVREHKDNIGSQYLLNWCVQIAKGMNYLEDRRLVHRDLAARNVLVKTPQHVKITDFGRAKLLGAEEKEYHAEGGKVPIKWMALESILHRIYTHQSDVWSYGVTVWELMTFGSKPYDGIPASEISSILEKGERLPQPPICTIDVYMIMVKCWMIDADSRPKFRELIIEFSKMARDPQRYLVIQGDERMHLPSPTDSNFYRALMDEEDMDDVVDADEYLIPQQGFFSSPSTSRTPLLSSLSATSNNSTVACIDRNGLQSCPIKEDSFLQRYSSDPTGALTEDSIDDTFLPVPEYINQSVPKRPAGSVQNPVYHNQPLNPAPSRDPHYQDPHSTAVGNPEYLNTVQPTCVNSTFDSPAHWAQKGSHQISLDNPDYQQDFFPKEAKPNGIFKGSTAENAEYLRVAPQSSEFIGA
The next experiment has as its system PC-9. The experiment is described as follows: Antiproliferative activity against human PC9 cells assessed as inhibition of cell growth at 10 uM incubated for 48 hrs by MTT assay relative to control. To be noted: PC-9, 48 h. In kind it is functional.
In a further experiment the test system is HCC827. Put plainly: Antiproliferative activity against human HCC827 cells assessed as inhibition of cell growth at 10 uM incubated for 48 hrs by MTT assay relative to control. In kind it is functional. To be noted: HCC827, 48 h.
Experiment [3] concerns the target T1, Epidermal growth factor receptor (Homo sapiens, UniProt P00533). Put plainly: Inhibition of N-terminal GST-tagged human EGFR (d746-750AA) expressed in baculovirus at 10 uM using FAM-labelled peptide as substrate pre-incubated for 10 mins followed by substrate addition by mobility shift assay relative to control.
Experiment [4] has as its target T1, Epidermal growth factor receptor. Put plainly: Inhibition of N-terminal GST-tagged human EGFR cytoplasmic domain (669-1210 AA) expressed in baculovirus at 10 uM using FAM-labelled peptide as substrate pre-incubated for 10 mins followed by substrate addition by mobility shift assay relative to control.
For the next experiment, the system named is NCI-H226. The experiment is described as follows: Antiproliferative activity against human NCI-H226 cells assessed as inhibition of cell growth at 10 uM incubated for 48 hrs by MTT assay relative to control. To be noted: NCI-H226, 48 h. In kind it is functional.
The next experiment deals with NCI-H1581. The experiment is described as follows: Antiproliferative activity against human NCI-H1581 cells assessed as inhibition of cell growth at 10 uM incubated for 48 hrs by MTT assay relative to control. Type of experiment: functional. To be noted: NCI-H1581, 48 h.
The next experiment concerns NCI-H520. The experiment is described as follows: Antiproliferative activity against human NCI-H520 cells assessed as inhibition of cell growth at 10 uM incubated for 48 hrs by MTT assay relative to control. In kind it is functional. To be noted: NCI-H520, 48 h.

T1 sequence (P00533 whole entry, the tested form may be a part): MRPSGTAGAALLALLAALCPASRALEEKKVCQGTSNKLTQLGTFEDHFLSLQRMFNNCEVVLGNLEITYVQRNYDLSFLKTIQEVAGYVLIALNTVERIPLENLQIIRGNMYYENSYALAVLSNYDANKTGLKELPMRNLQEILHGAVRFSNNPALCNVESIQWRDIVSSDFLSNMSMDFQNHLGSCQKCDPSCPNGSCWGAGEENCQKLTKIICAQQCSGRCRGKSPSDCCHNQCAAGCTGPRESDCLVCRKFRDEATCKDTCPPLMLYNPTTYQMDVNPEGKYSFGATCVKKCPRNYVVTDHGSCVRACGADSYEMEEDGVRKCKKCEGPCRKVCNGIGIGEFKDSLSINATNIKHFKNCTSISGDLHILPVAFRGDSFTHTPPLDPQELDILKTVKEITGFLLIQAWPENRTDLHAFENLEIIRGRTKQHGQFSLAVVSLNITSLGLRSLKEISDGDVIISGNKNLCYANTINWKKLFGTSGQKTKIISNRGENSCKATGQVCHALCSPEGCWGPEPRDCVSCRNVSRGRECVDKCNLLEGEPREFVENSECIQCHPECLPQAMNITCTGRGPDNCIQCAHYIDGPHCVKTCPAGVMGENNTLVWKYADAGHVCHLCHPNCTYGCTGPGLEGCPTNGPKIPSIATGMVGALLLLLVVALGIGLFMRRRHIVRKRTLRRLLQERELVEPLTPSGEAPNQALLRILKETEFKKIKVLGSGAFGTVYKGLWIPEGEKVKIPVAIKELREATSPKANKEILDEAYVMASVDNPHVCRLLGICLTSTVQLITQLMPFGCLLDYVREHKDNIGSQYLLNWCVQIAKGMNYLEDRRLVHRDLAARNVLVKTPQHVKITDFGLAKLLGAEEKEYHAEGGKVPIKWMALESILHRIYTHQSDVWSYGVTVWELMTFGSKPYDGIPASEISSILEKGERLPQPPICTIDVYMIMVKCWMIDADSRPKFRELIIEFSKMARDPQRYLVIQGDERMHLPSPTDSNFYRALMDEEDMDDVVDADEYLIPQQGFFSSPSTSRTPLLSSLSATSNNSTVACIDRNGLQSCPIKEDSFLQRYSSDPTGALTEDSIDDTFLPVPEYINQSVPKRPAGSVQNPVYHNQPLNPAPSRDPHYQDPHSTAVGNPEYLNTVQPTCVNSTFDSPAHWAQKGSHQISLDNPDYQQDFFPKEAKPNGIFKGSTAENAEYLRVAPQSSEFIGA
Sequence of Fibroblast growth factor receptor 1 (P11362 22-822 limits assumed): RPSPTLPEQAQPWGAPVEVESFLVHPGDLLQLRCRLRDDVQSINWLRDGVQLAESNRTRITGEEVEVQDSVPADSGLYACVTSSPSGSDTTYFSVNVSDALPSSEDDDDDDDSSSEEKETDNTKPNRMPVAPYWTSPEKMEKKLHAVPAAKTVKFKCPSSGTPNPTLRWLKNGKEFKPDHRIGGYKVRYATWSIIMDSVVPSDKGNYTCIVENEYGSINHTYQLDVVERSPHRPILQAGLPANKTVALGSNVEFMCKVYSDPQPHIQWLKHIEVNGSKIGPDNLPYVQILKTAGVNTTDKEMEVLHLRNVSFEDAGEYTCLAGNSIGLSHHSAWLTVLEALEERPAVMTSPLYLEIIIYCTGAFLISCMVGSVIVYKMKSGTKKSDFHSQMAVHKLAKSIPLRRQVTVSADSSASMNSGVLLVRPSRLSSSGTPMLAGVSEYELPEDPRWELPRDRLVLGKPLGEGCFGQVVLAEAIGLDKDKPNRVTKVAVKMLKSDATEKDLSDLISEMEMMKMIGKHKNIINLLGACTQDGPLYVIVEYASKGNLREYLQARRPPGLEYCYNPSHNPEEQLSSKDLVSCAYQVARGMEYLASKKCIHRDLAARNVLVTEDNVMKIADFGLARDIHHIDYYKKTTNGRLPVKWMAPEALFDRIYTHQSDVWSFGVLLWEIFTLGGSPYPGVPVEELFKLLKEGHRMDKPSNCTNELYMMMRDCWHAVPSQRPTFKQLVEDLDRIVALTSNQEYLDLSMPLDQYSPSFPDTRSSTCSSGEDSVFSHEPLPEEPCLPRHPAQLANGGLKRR

In the case of `COc1cc(Nc2cc(NC(=O)Nc3c(Cl)cccc3Cl)ncn2)cc(C(F)(F)F)c1`, the inhibition in experiment [1] was 0.9%; in experiment [2], 69.3%; in experiment [3], 48.4%; in [4], 40%. Besides, the inhibition at 10 µM turned out to be 88.5% with PC-9; 57.7% in the experiment with HCC827; 33.1% in the experiment with NCI-H226; 32.3% with NCI-H1581; 23.1% with NCI-H520.

Consider `COc1cc(NC(=O)Nc2cc(Nc3cc(C)cc(F)c3)ncn2)cc(OC)c1`, for which the inhibition in [1] is 1.1%; in [2] it was 23.1%; in experiment [3], 16.7%; in [4] it was 8%. Besides, the inhibition at 10 µM in the experiment on PC-9 worked out at 64.5%; in the experiment on HCC827, 62%; in the experiment with NCI-H226, 35.3%; with NCI-H1581, 28.3%; in the experiment with NCI-H520, 24.5%.

Regarding `COc1cc(NC(=O)Nc2cc(Nc3ccc(Br)cc3OC)ncn2)cc(OC)c1`, the inhibition in experiment [1] was -0.7%; in experiment [2], 36.9%; in experiment [3], 17.9%; in [4], 12.4%. The inhibition at 10 µM with PC-9 worked out at 83%; with HCC827, 57.7%; with NCI-H226, 25.7%; in the experiment on NCI-H1581, 20.1%; in the experiment on NCI-H520, 36%.

As for `COc1cc(NC(=O)Nc2cc(Nc3ccc(C(C)(C)C)cc3)ncn2)cc(OC)c1`, the inhibition in [1] is -0.7%; in experiment [2] it was 2.7%; in experiment [3], -0.2%; in [4] it was -1.1%. Moreover, the inhibition at 10 µM stood at 74.1% with PC-9; 32.7% in the experiment on HCC827; 47.7% in the experiment on NCI-H226; 38.7% in the experiment with NCI-H1581; 17.5% in the experiment on NCI-H520.

Consider `COc1ccc(Br)cc1Nc1cc(NC(=O)Nc2c(Cl)cccc2Cl)ncn1`, for which the inhibition amounted to 37.8% in experiment [1], 95.9% in experiment [2], 93.5% in experiment [3] and 87.3% in [4]. Moreover, the inhibition at 10 µM in the experiment with PC-9 was 69%; with HCC827, 53%; in the experiment on NCI-H226, 33%; in the experiment on NCI-H1581 it was 53.3%; in the experiment on NCI-H520, 45%.

Take `CCc1cccc(Nc2cc(NC(=O)Nc3cc(OC)cc(OC)c3)ncn2)c1`: the inhibition is 1.1% in experiment [1], 41% in experiment [2], 26% in experiment [3] and 10.1% in experiment [4]. Besides, the inhibition at 10 µM was 82.1% in the experiment on PC-9; 52.6% in the experiment on HCC827; 36.7% in the experiment on NCI-H226; 27.7% with NCI-H1581; 23% in the experiment with NCI-H520.

For `COc1cc(NC(=O)Nc2cc(Nc3ccc(OC)c(I)c3)ncn2)cc(OC)c1`, the inhibition was 10.3% in experiment [1], 46% in experiment [2], 43.6% in experiment [3] and 31.4% in experiment [4]. Further, the inhibition at 10 µM is 47% in the experiment on PC-9; 61.7% with HCC827; 40.1% with NCI-H226; 43% in the experiment with NCI-H1581; 46.5% in the experiment on NCI-H520.

As to `COc1cc(NC(=O)Nc2cc(Nc3cc(OC)cc(C(F)(F)F)c3)ncn2)cc(OC)c1`, the inhibition in [1] is -1.7%; in [2], 48.6%; in experiment [3] it was 27.5%; in [4], 18.5%. In addition, the inhibition at 10 µM in the experiment with PC-9 stood at 88.1%; with HCC827, 57.7%; in the experiment with NCI-H226 it was 56%; in the experiment on NCI-H1581, 50.7%; in the experiment on NCI-H520 it was 36.5%.

For `COc1cc(NC(=O)Nc2cc(Nc3ccc(F)c(Cl)c3)ncn2)cc(OC)c1`, the inhibition in experiment [1] was determined as 1%; in experiment [2] it was 69.1%; in experiment [3] it was 52.8%; in experiment [4] it was 46.7%. Besides, the inhibition at 10 µM with PC-9 was 77.5%; with HCC827, 53%; with NCI-H226, 36.7%; in the experiment with NCI-H1581, 53%; with NCI-H520 it was 25.5%.

Turning to `COc1ccc(Nc2cc(NC(=O)Nc3c(Cl)cccc3Cl)ncn2)cc1C`, the inhibition in experiment [1] stood at 50.4%; in [2], 76.4%; in experiment [3], 67.4%; in experiment [4], 47.3%. Also, the inhibition at 10 µM worked out at 80.1% with PC-9; 63.1% in the experiment with HCC827; 50% in the experiment on NCI-H226; 45% in the experiment on NCI-H1581; 29.1% in the experiment on NCI-H520.

For the compound `CCc1ccc(Nc2cc(NC(=O)Nc3cc(OC)cc(OC)c3)ncn2)cc1`, the inhibition in experiment [1] was 6.1%; in experiment [2], 45.7%; in [3] it was 28.1%; in experiment [4], 25.4%. The inhibition at 10 µM in the experiment with PC-9 stood at 78%; in the experiment with HCC827 it was 66.2%; in the experiment with NCI-H226, 50.1%; in the experiment on NCI-H1581, 32.7%; with NCI-H520 it was 23.5%.

Consider `COc1cc(Br)ccc1Nc1cc(NC(=O)Nc2c(Cl)cccc2Cl)ncn1`, for which the inhibition was found to be 12.6% in experiment [1], 83.2% in [2], 75.9% in experiment [3] and 65.6% in experiment [4]. The inhibition at 10 µM in the experiment on PC-9 came out at 90.5%; with HCC827 it was 42.7%; in the experiment on NCI-H226, 43%; in the experiment on NCI-H1581, 47.3%; with NCI-H520, 29.1%.

In the case of `COc1cc(NC(=O)Nc2cc(Nc3cc(F)ccc3OC)ncn2)cc(OC)c1`, the inhibition in experiment [1] is -1.6%; in experiment [2], 54.6%; in [3], 35.4%; in [4] it was 31.1%. In addition, the inhibition at 10 µM in the experiment on PC-9 worked out at 59.5%; in the experiment with HCC827, 59%; with NCI-H226 it was 37.7%; in the experiment on NCI-H1581 it was 42.1%; with NCI-H520, 38%.

Turning to `COc1ccc(F)cc1Nc1cc(NC(=O)Nc2c(Cl)cccc2Cl)ncn1`, the inhibition in experiment [1] came out at 11.1%; in experiment [2], 63.3%; in experiment [3] it was 48.7%; in experiment [4], 39.2%. Further, the inhibition at 10 µM in the experiment with PC-9 was determined as 85.5%; in the experiment with HCC827, 78%; in the experiment on NCI-H226, 31.3%; in the experiment with NCI-H1581 it was 73.1%; with NCI-H520, 38%.

As to `Cc1ccc(Nc2cc(NC(=O)Nc3c(Cl)cccc3Cl)ncn2)cc1F`, the inhibition was 51% in experiment [1], 67.2% in experiment [2], 87.1% in experiment [3] and 77.8% in experiment [4]. Besides, the inhibition at 10 µM in the experiment on PC-9 was 92%; with HCC827, 85.3%; in the experiment with NCI-H226 it was 40.7%; in the experiment with NCI-H1581 it was 45.3%; in the experiment on NCI-H520, 33.5%.

`COc1cc(NC(=O)Nc2cc(Nc3ccc(C)c(C)c3)ncn2)cc(OC)c1`: the inhibition in experiment [1] came to 21.3%; in [2], 39.5%; in [3], 43.4%; in [4] it was 54.1%. The inhibition at 10 µM turned out to be 66% in the experiment with PC-9; 45.7% in the experiment on HCC827; 45.3% in the experiment with NCI-H226; 20.1% with NCI-H1581; 29.5% in the experiment on NCI-H520.

`Cc1ccc(Nc2cc(NC(=O)Nc3c(Cl)cccc3Cl)ncn2)cc1C`: the inhibition in experiment [1] stood at 45.3%; in experiment [2], 63.8%; in [3], 58.6%; in experiment [4] it was 64.8%. The inhibition at 10 µM with PC-9 is 92.1%; in the experiment with HCC827, 84.3%; with NCI-H226, 41.3%; in the experiment with NCI-H1581 it was 73.3%; with NCI-H520 it was 47.5%.

For `CC(C)(C)c1cccc(Nc2cc(NC(=O)Nc3c(Cl)cccc3Cl)ncn2)c1`, the inhibition in experiment [1] stood at 10.7%; in experiment [2], 68.4%; in [3], 57.4%; in experiment [4] it was 44.7%. Further, the inhibition at 10 µM turned out to be 87% in the experiment on PC-9; 37.3% with HCC827; 36.5% in the experiment on NCI-H226; 64.3% in the experiment on NCI-H1581; 29.6% in the experiment on NCI-H520.

Values taken from ChEMBL document CHEMBL4414679, “Discovery of 4,6-pyrimidinediamine derivatives as novel dual EGFR/FGFR inhibitors aimed EGFR/FGFR1-positive NSCLC” (Eur J Med Chem, 2020).
